Assay results from patent US8808771B2, “Active ingredient delivery system with an amorphous metal salt as carrier” (Firmenich SA, priority 2006, dated 2014).

Test: Extinction coefficient (phenol band at 280 nm) before and after addition of ACAP, entrapment of naringin
Type: physicochemical
Settings: for E-value (extinction coefficient, phenol band at 280 nm): diluted 1:12 with 30 wt % ethanolic solution, slightly acidic
Protocol: A conventional double jet precipitation process, which can be operated both batch wise and in a continuous mode, was used. The active ingredient (Naringin) was firstly dissolved in ethanol or ethanol/water medium. A first stream comprising Ca^2+ ions (provided as calcium chloride solution) and a second stream comprising PO4^3− ions (provided as sodium phosphate), were prepared in order to give a resulting carrier component comprising ACAP solution at 10 g/L. A third stream comprising a standard solution of 2 g/L of naringin in 30% ethanol solution was then prepared.
The three streams were jetted separately into a mixing chamber using a standard y-mixer with the reaction being stopped for equal volumes, i.e. 10 ml Ca^2+ stock solution plus 10 ml PO4^3− stock solution into 10 ml naringin. The extinction coefficient (strong phenol band at 280 nm, slightly acidic conditions) was determined after standardized dilution with 30 wt % ethanolic solution (1:12) and was compared before and after the addition of the ACAP.

E-value (extinction coefficient, phenol band at 280 nm) (after addition of ACAP): 1.5
E-value (extinction coefficient, phenol band at 280 nm) (before addition of ACAP): 3.75
naringin entrapped by the ACAP (calculated from the lowering of the E-value): at least 70%
SMILES: C[C@@H]1O[C@@H](O[C@H]2[C@H](Oc3cc(O)c4c(c3)O[C@H](c3ccc(O)cc3)CC4=O)O[C@H](CO)[C@@H](O)[C@@H]2O)[C@H](O)[C@H](O)[C@H]1O [naringin, Naringin]
